Target: T1, guanylate cyclase (Oryctolagus cuniculus, UniProt G1TXB5)
T1 sequence (G1TXB5 28-1056): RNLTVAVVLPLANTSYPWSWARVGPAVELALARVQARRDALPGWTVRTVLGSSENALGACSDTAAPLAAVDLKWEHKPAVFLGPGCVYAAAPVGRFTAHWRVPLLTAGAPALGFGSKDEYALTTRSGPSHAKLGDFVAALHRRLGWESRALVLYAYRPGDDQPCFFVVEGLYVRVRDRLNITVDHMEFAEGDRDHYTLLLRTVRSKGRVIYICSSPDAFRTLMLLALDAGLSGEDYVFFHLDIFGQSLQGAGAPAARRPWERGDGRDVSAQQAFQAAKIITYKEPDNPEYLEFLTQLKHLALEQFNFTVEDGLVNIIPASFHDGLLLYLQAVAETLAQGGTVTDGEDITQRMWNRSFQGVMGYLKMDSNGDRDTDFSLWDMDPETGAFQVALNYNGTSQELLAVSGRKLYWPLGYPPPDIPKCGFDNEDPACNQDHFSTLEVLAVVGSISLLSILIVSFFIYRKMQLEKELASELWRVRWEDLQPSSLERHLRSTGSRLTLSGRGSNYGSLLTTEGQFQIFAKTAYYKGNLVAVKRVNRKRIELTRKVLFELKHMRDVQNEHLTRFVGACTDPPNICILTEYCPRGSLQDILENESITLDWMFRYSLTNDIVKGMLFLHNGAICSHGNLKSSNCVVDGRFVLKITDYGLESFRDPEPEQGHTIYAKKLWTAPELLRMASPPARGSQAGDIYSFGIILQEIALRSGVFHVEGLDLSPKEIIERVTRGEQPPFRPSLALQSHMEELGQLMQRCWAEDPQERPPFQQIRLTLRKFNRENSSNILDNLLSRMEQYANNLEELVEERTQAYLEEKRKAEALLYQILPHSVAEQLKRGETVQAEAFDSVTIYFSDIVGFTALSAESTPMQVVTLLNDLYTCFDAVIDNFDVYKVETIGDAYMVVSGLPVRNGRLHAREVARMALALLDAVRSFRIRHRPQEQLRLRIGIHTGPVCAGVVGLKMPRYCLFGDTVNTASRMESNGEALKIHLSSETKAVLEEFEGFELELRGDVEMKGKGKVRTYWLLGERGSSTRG
Assay: Atriopeptin-activated guanylate cyclase in ciliary process membrane (P1) fractions
Type: biochemical, rabbit
Set-up: tissues were homogenized (10 mg wet weight per milliliter); from tissue; host or cells: rabbit cerebral microvessels, choroid plexus, kidney, ciliary process, pia-arachnoid, cerebellum; 100,000 g P1 pellet
Conditions: mean ± range of duplicate determinations
Description: Ciliary process tips were obtained from male, 3-4 kg, New Zealand white rabbits, immediately following sacrifice with an overdose of ether, as described in Nathanson, Invest. Ophthal. Vis. Sci., 21:7981 (1982). The tissue was minced and homogenized (10 mg/ml) by hand in a glass-glass homogenizer in a buffer consisting of 50 mM Tris HCl, pH 8.0; 1mM EDTA, and 250mM sucrose. The homogenate was diluted 30-fold with buffer and centrifuged at 100,000 x g, to obtain a P1 fraction. The pellet was rehomogenized in the original volume and left on ice until use. P1 fractions were also prepared from wedges of rabbit kidney taken from the same animals. In some experiments, P1 fractions were prepared from iris and from ciliary body, as described in Nathanson, Proc. Natl. Acad. Sci. USA, 77:7420 (1980). Briefly, iris was removed from its attachment to the ciliary body, cleaned of adhering ciliary process tissue, washed, and homogenized as above. The ciliary muscle was cleaned of most remaining ciliary process tissue, freed from the underlying sclera by blunt and sharp dissection, and then washed and homogenized.
Atriopeptin-activated guanylate cyclase activity was measured as the rate of conversion of GTP to cyclic GMP. […]
For RIA, each tube contained (in 0.5ml), 50mM sodium acetate buffer (pH 6.2), 2mM EDTA, 1mg/ml bovine serum albumin, 0.1 ml of sample (or diluted sample), 8,000-15,000 cpm (about 5 fmole) of ¹²⁵I succinyl cyclic GMP tyrosine methyl ester, and antibody to bind 25-35% of the label. […] Activation constants (Ka) were determined from dose-response curves utilizing 12-14 data points (6-7 concentrations of hormone, in duplicate), each point representing the mean of triplicate RIA determinations.
Atriopeptin-activated guanylate cyclase activity was measured, as described in Example 5, in membranes from rabbit kidney and ciliary process prepared as in Example 4. […]

Substance	Vmax Stimulation (%) of Guanylate Cyclase Ciliary Process [%]
Ser-Leu-Arg-Arg-atriopeptin III (APIII) [rANP 1-28]	124 ± 5
rANP 13-28 (DRIGAQSGLGCNSFRY; Atrial natriuretic peptide; UniProt P01161 135-150, looked up, fragment)	51 ± 5
